Experimental data reported in patent US6737383B1, “Herbicidal oxadiazolidines” (priority 1999, dated 2004).

Experiments:
morningglory = test: Test B pre/postemergence morningglory; assay type: in vivo, Ipomoea hederacea
Method in brief: (§1)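 Response is a visual 0-to-10 score relative to untreated plants, where 0 means no effect and 10 means complete control, taken twelve to sixteen days after application. Treatments went onto soil at planting and onto foliage of 1- to 4-leaf plants, using a surfactant-containing non-phytotoxic solvent.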

wild oat = test: Test B pre/postemergence wild oat; assay type: in vivo, Avena fatua
Method in brief: as §1

bedstraw = test: Test B pre/postemergence bedstraw; assay type: in vivo, Galium aparine
Method in brief: as §1

velvetleaf = test: Test B pre/postemergence velvetleaf; assay type: in vivo, Abutilon theophrasti
Method in brief: as §1

[1] = Postemergence, Rate 250 g/ha, scale 0 to 10, 0 no effect, 10 complete control
[2] = Postemergence, Rate 1000 g/ha, scale 0 to 10 (0 no effect, 10 complete control)
[3] = Preemergence, Rate 125 g/ha, scale 0 to 10 (0 no effect, 10 complete control)
[4] = Preemergence, Rate 250 g/ha, scale of 0 to 10 where 0 is no effect and 10 is complete control
[5] = Preemergence, Rate 500 g/ha, scale 0 (no effect) to 10 (complete control)
[6] = Rate 125 g/ha, Postemergence, scale 0 to 10, 0 no effect, 10 complete control
[7] = Rate 500 g/ha, Postemergence, 0 to 10 scale (0 no effect, 10 complete control)
[8] = Rate 1000 g/ha, Preemergence, scale 0 to 10 (0 no effect, 10 complete control)
[9] = Postemergence, Rate 62 g/ha, scale 0 to 10, 0 is no effect, 10 is complete control
[10] = Preemergence, Rate 62 g/ha, scale 0 to 10, 0 is no effect, 10 is complete control

| SMILES | Morningglory plant response rating (morningglory; [1]) | Plant response rating, Morningglory (morningglory; [3]) | Morningglory plant response rating (morningglory; [5]) | Morningglory plant response rating (morningglory; [6]) | Morningglory plant response rating (morningglory; [7]) | Wild oats plant response rating (wild oat; [1]) | Plant response rating, Wild oats (wild oat; [3]) | Plant response rating, Wild oats (wild oat; [4]) | Wild oats plant response rating (wild oat; [5]) | Wild oats plant response rating (wild oat; [6]) | Bedstraw plant response rating (bedstraw; [1]) | Plant response rating, Bedstraw (bedstraw; [3]) | Plant response rating, Bedstraw (bedstraw; [4]) | Bedstraw plant response rating (bedstraw; [5]) | Bedstraw plant response rating (bedstraw; [6]) | Bedstraw plant response rating (bedstraw; [7]) | Velvetleaf plant response rating (velvetleaf; [1]) | Plant response rating, Velvetleaf (velvetleaf; [3]) | Velvetleaf plant response rating (velvetleaf; [5]) | Velvetleaf plant response rating (velvetleaf; [6]) | also measured |
| --- | --- | --- | --- | --- | --- | --- | --- | --- | --- | --- | --- | --- | --- | --- | --- | --- | --- | --- | --- | --- | --- |
| CCN(CC)C(=O)n1oc(=O)n(-c2c(C)cccc2C)c1=O [Compound 2] | 0 | 0 | 0 | 0 | 0 | 0 | 0 | 0 | 0 | 0 | 0 | 0 | 0 | 0 | 0 | 0 | 0 | 0 | 0 | 0 | Morningglory plant response rating (morningglory; [2]): 5; Plant response rating, Morningglory (morningglory; [4]): 0; Plant response rating, Morningglory (morningglory; [8]): 0; Wild oats plant response rating (wild oat; [2]): 0; Plant response rating, Wild oats (wild oat; [8]): 4; Bedstraw plant response rating (bedstraw; [2]): 0; Plant response rating, Bedstraw (bedstraw; [8]): 0; Velvetleaf plant response rating (velvetleaf; [2]): 0; Plant response rating, Velvetleaf (velvetleaf; [4]): 0; Plant response rating, Velvetleaf (velvetleaf; [8]): 2 |
| CC(C)N(C(=O)n1oc(=O)n(-c2ccc(Cl)cc2Cl)c1=O)c1ccc(F)cc1 [Compound 7, 4-(2,4-Dichlorophenyl)-N-(4-fluorophenyl)-N-(1-methylethyl)-3,5-dioxo-1,2,4-oxadiazolidine-2-carboxamide] |  | 0 | 0 | 0 | 0 | 0 | 0 | 0 | 0 | 0 | 0 | 0 | 0 | 0 | 0 | 0 | 0 | 0 | 0 | 0 | Morningglory plant response rating (morningglory; [2]): 3; Plant response rating, Morningglory (morningglory; [4]): 0; Plant response rating, Morningglory (morningglory; [8]): 0; Wild oats plant response rating (wild oat; [2]): 3; Plant response rating, Wild oats (wild oat; [8]): 0; Bedstraw plant response rating (bedstraw; [2]): 4; Plant response rating, Bedstraw (bedstraw; [8]): 0; Velvetleaf plant response rating (velvetleaf; [2]): 0; Plant response rating, Velvetleaf (velvetleaf; [4]): 0; Plant response rating, Velvetleaf (velvetleaf; [8]): 0 |
| CCN(CC)C(=O)n1oc(=O)n(-c2cc(Cl)cc(Cl)c2)c1=O [Compound 11] | 0 | 0 | 0 | 0 | 0 | 0 | 0 | 0 | 0 | 0 | 0 | 0 | 0 | 0 | 0 | 0 | 0 | 0 | 0 | 0 | Morningglory plant response rating (morningglory; [9]): 0; Plant response rating, Morningglory (morningglory; [10]): 0; Plant response rating, Morningglory (morningglory; [4]): 0; Wild oats plant response rating (wild oat; [9]): 0; Bedstraw plant response rating (bedstraw; [9]): 0; Plant response rating, Bedstraw (bedstraw; [10]): 0; Velvetleaf plant response rating (velvetleaf; [9]): 0; Plant response rating, Velvetleaf (velvetleaf; [10]): 0; Plant response rating, Velvetleaf (velvetleaf; [4]): 0 |
| CC(C)N(C(=O)n1oc(=O)n(-c2ccccc2C(F)(F)F)c1=O)c1ccc(F)cc1 [Compound 15] | 6 | 0 | 0 | 2 | 7 | 0 | 0 | 0 | 0 | 0 | 0 | 0 | 0 | 7 | 0 | 4 | 0 | 0 | 0 | 0 | Morningglory plant response rating (morningglory; [9]): 2; Plant response rating, Morningglory (morningglory; [10]): 0; Wild oats plant response rating (wild oat; [9]): 0; Bedstraw plant response rating (bedstraw; [9]): 0; Plant response rating, Bedstraw (bedstraw; [10]): 0; Velvetleaf plant response rating (velvetleaf; [9]): 0; Plant response rating, Velvetleaf (velvetleaf; [10]): 0 |
| CC(C)N(C(=O)n1oc(=O)n(-c2c(Cl)cccc2Cl)c1=O)c1ccc(F)cc1 [Compound 19] | 0 | 0 | 0 | 0 | 2 | 0 | 0 | 0 | 0 | 0 | 7 | 0 | 0 | 0 | 6 | 8 | 0 | 0 | 0 | 0 | Morningglory plant response rating (morningglory; [9]): 0; Plant response rating, Morningglory (morningglory; [10]): 0; Plant response rating, Morningglory (morningglory; [4]): 0; Wild oats plant response rating (wild oat; [9]): 0; Bedstraw plant response rating (bedstraw; [9]): 2; Plant response rating, Bedstraw (bedstraw; [10]): 0; Velvetleaf plant response rating (velvetleaf; [9]): 0; Plant response rating, Velvetleaf (velvetleaf; [10]): 0; Plant response rating, Velvetleaf (velvetleaf; [4]): 0 |
